Data as given in article PMC12388980, “Development of AGT-7: An Innovative ^99mTc-Labeled Theranostic Platform for Glioblastoma Imaging and Therapy” (Pharmaceuticals, 2025).

Columns and labels:
[1] = LC-MS-based plasma stability in human plasma; type: in vitro ADME; settings: 1 μM, 37 °C, 9-h incubation period, compared to TMZ
Description: Plasma samples were diluted 1:1 (v/v) with phosphate buffer (pH 7.4). […] The mixtures were vortexed vigorously and incubated at 37 °C on a thermoshaker (Kisker Biotech, Steinfurt, Germany) at 600 rpm. Reactions were terminated at 0, 1, 2, 3, 4, 6, 9, and 24 h by transferring 150 μL of the incubated plasma into 450 μL of ice-cold ACN. After vortexing, samples were stored at −20 °C for 30 min and centrifuged, and 200 μL of the supernatant was diluted with 600 μL of water. The resulting solution was filtered through a 0.22 μm nylon syringe filter (Target Analysis, Thessaloniki, Greece) into 2 mL glass vials before analysis.
The mobile phase consisted of (A) 0.1% formic acid in water and (B) 0.05% formic acid in ACN, delivered constantly at 0.2 mL/min. The gradient program was optimized as follows: 1% B (0.00–3.00 min), linear ramp to 100% B (3.00–10.00 min), hold at 100% B (10.00–12.00 min), return to initial conditions (12.00–12.01 min), and re-equilibration at 1% B (12.01–15.00 min). […]
Full-scan MS data were acquired in MS^E mode with two alternating collision energy functions: low energy (4 eV) for precursor ions and ramped high energy (25–45 eV) for fragment ions. […] System control and data acquisition were managed using MassLynx v4.2 (SCN 1029), while UNIFI v1.9.4.053 facilitated data processing, including adduct identification ([M+H]⁺, [M+Na]⁺, [M+H2]^2+) and relative quantitation. […]

T98 cells [2] = assay: Trypan blue exclusion cytotoxicity assay, T98 cells; type: cell-based; settings: Homo sapiens, T98 cell line, 72 h post-treatment
Description: (§1) To explore the effect of AGT-7 on the viability of GBM cell lines, T98 and U87 cells were cultured with escalating concentrations of the compounds for 72 h, and afterward, the trypan blue exclusion assay was carried out.
(§2) The sensitivity of T98 and U87 cells to the compound was assessed using the trypan blue exclusion test. A total of 20,000 cells were seeded onto 12-well plates and incubated in a humidified atmosphere. After 24 h, cells were treated with the compound at concentrations of 20–100 μM for 72 h followed by trypan blue exclusion analysis. The results were derived as the mean of three independent experiments.
(§3) Figure 3 Cytotoxic effect of AGT-7 on T98 (A) and U87 cell lines (B) 72 h after treatment. The results are the average of three independent experiments and are standardized to untreated cells. The IC50 values were calculated using the GraphPad Prism Version 6 non-linear regression analysis model.
as §3, with “4” for “3”, “AGT-7 and TMZ” for “AGT-7”

U87 cells [3] = assay: Trypan blue exclusion cytotoxicity assay, U87 cells; type: cell-based; settings: Homo sapiens, U-87 MG, U87 cell line, 72 h post-treatment
Description: as §1, §2, §3
as §3, with “4” for “3”, “AGT-7 and TMZ” for “AGT-7”

T98 cells [4] = assay: Flow cytometric analysis of DNA cell cycle, T98 cells; type: cell-based; settings: treated at IC50 for 72 h
Description: (§4) Subsequently, cells were washed with phosphate-buffered saline (PBS) solution, harvested by incubation with trypsin, and held at 37 °C for 20 min with a PI working solution ([…], and 0.1% Triton X-100). PI fluorescence data were collected using a flow cytometer (Cytognos S.L., Polígono La Serna, Nave 9, 37900 Santa Marta de Tormes, Salamanca, Spain) and were analyzed using GraphPad Prism Version 6 software and MedCalc software (trial version).
(§5) Figure 5 Graphical representation of cell cycle distribution in T98 (A) and U87 (B) cell lines after treatment with AGT-7 in IC50 concentration. Experiment was carried out three times, and values are means of three repetitions.

U87 cells [5] = assay: Flow cytometric analysis of DNA cell cycle, U87 cells; type: cell-based; settings: treated at IC50 for 72 h
Description: as §4, §5

[6] = test system: zebrafish (Danio rerio) embryos; assay: Acute toxicity test in zebrafish embryos (OECD 2010); type: in vivo; settings: 96 hpf
Description: Prior to advancing the biological evaluation of AGT-7, it was essential to assess its in vivo acute toxicity. To this end, we employed a standard acute exposure assay using zebrafish (Danio rerio) embryos as a vertebrate model system. Drug exposure was for 96 h post-fertilization (hpf), following the guidelines established by the Organisation for Economic Co-operation and Development (OECD, 2010) for fish embryo toxicity testing. […] This alignment between therapeutically effective concentrations and sub-lethal doses in vivo underscores a favorable safety profile for AGT-7 and supports its further preclinical development.
Adult zebrafish specimens of the wild-type strain (AB) were maintained in a colony room, in a recirculated system, at 28 ± 1 °C, pH 6.5–7.5, and water conductivity of 500 ± 50 μS cm−1 with a 14 h light/10 h dark photoperiod (lights on at 8:00 a.m.). Feeding of the fish was performed twice a day with zebrafish feed (Zebrafeed, Sparos, […]) following common practices. Sexually mature zebrafish (at least three months old) were used for spawning.
The collection of zebrafish eggs was performed at the beginning of the 14 h light phase following the mating procedure that took place overnight. […] The dechorionation process of the eggs followed at 24 h post-fertilization (hpf).
The dechorionated embryos were placed in 24-well culture plates (2 embryos per well, 1.5 mL of solution per well), and each experiment was performed in triplicate. Preliminary tests were performed to evaluate the range of 0–100% mortality. DMSO (0.1%) was used as dissolver and as well as vehicle control (non-exposed). In the current study, seven different concentrations of AGT-7 were tested (0.0, 10.0, 20.0, 40.0, 60.0, 80.0, and 100.0 μΜ). In total, 881 embryos were studied, of which 96 belonged to the non-exposed group. […] Each experiment lasted 96 h post fertilization time (hpf) and began at 24 hpf, approximately at the 26-somite point, according to Kimmel et al..
It is essential to apply an acute test that uses short-term exposure (96hpf) to AGT-7 and then to determine the concentration that is lethal to 50% of zebrafish embryos. This is a valuable indicator of acute fish toxicity. According to OECD 2010, indications of death of an embryo include coagulation of the embryo, lack of somite formation, non-detachment of the tail, and/or lack of heartbeat.
Toxicity assays (LD50 values) and confidence limits (LD25 and LD75) were calculated based on cumulative mortality at the end of the experiment (96 hpf). The LD50 values were assessed using Regression Probit analysis (the chi-square test, Pearson goodness of fit test, and 95% confidence interval).

SMILES	plasma stability profile [1]	IC50 (T98 cells [2]) [µM]	IC50 (U87 cells [3]) [µM]	effect on cell cycle progression (T98 cells [4])	effect on cell cycle progression (U87 cells [5])	LD25 [6] [µM]	LD75 [6] [µM]	concentrations with no significant mortality [6]	LD50 ([6]; cumulative mortality, probit analysis) [µM]
Cn1nnc2c(C(=O)NCCCCN(Cc3ccccn3)Cc3ccccn3)ncn2c1=O [AGT-7]	very similar to that of the parent drug, TMZ	27	30	no significant effect on cell cycle progression	no significant effect on cell cycle progression	35.54	61.64	up to 30 μM	46.81
Cn1nnc2c(C(N)=O)ncn2c1=O [TMZ, temozolomide, reference compound]		143	50						
